Non-standard residues stand in square brackets, D forms with d. *: point of attachment. Palmitoyl = CCCCCCCCCCCCCCCC(=O)*; Ahx = NCCCCCC(=O)O
Key:
hBD2 promoter = assay: Activation of the hBD2 promoter (luciferase activity assay) in a stable A549 cell line; type: cell-based, human
Procedure: Assay of activation of the hBD2 promoter in a stable cell line by the compounds of general formula (I) obtained in Example 5.
The A549 human epithelial cell line was cultured using RPMI-1640 medium supplemented with FBS and Penicillin-Streptomycin. It was routinely cultured by dividing the cultures twice a week at a 1:10 dilution using Trypsin-EDTA. 10^6 cells of the A549 line were seeded in a 60 mm disc treated with polylysine. After 24 h they were cotransfected with 10 μg of a gene construct formed by the hBD2 gene promoter followed by the luciferase protein gene (pGL3-hBD2promotor-Luc), and the pcDNA3B plasmid DNA containing the geneticin antibiotic resistance gene, at a 1:5 pcDNA3B.1/pGL3-hBD2promotor-Luc ratio. 25 μL of Lipofectamine™ 2000 were used for the transfection. After 24 h the selection was started with complete medium supplemented with the G418-Geneticin® antibiotic, the selection medium being renewed every 2 days. Different clones were isolated, which were characterized and selected based on the luciferase activity.
The selected stable lines were cultured using complete medium for the parental line supplemented with G418. They were routinely cultured by dividing the cultures twice a week at a 1:10 dilution using Trypsin-EDTA.
The capacity to activate the hBD2 promoter was determined by means of the luciferase activity assay since a transcriptional agent inducing hBD2 synthesis causes luciferase enzyme production by means of activating the hBD2 gene promoter contained in the pGL3-hBD2promotor-Luc construct, a luminescence increase being observed. The selected stable cell lines were seeded at 20,000 cells per plate. After 24 h the plates were washed and incubated for 24 h in modified RPMI-1640 medium without L-Isoleucine with different peptide derivatives at a concentration of 0.5 mM. LPS (100 μg/mL) and L-Isoleucine (25 μg/mL) were used as positive controls with the same treatment as the peptide derivatives. Once the incubation period had ended, the Steady-Glo Luciferase Assay System reagent (Promega Corp.) was added to the cells, following the protocol of the commercial company. The luminescent signal (ULAs/s) produced by the reaction between the luciferase and its substrate was quantified with a LUMIstar Galaxy plate luminometer (BMG Labtechnologies). Based on the values of luciferase activity (ULAs/s), standardized with the negative controls, the activation of the hBD2 promoter was determined.

hBD2 = assay: Quantification of hBD2 secreted by human keratinocytes by ELISA; type: cell-based
Procedure: (§1) The quantification of the amount of mRNA secreted was carried out by means of a real-time quantitative RT-PCR assay. 3×10^6 cells of a human keratinocyte line were used, seeded in 25 cm^2 flasks. The cells were washed and incubated for 16 h-24 h with different peptide derivatives at a concentration of 1 mm or 0.25 mm in a volume of 3 mL of DMEM medium. LPS (100 μg/mL) and L-Ile (200 μg/mL) were used as positive controls. The supernatants of the cells were stored at −80° C., to analyze the secreted hBD2 protein level and the total RNA was extracted from the cells with the RNeasy kit (Quiagen) following the protocol of the commercial company.
Quantification of the hBD2 secreted in human keratinocytes after incubation with Ac-L-Glu-L-Met-L-Ala-L-Ile-OH (Ac-SEQ ID No. 3-OH), Ac-L-Arg-Phg-Phg-OH and Ac-L-Arg-Ahx-L-Ala-OH.
The amount of hBD2 secreted by human keratinocytes was quantified by means of an ELISA assay using the Human BD-2 ELISA Development commercial kit (Peprotech) from the supernatants of the cells coming from Example 15.
Based on the absorbance data obtained, the hBD2 protein level was calculated after the calibration with recombinant hBD2. The values of hBD2 obtained were standardized with respect to the values of the control assays (untreated cells).

hBD2 mRNA = assay: Quantification of hBD2 mRNA in human keratinocytes by real-time quantitative RT-PCR; type: cell-based; conditions: 16 h-24 h
Procedure: Quantification of the hBD2 mRNA secreted in human keratinocytes after incubation with Ac-L-Glu-L-Met-L-Ala-L-Ile-OH (Ac-SEQ ID No. 3-OH), Ac-L-Arg-Phg-Phg-OH and Ac-L-Arg-Ahx-L-Ala-OH.
as §1
A retrotranscription reaction was carried out in a Mastercycler thermal cycler from 1 μg of total RNA of each sample, using the GeneAmp RNA PCR kit (Applied Biosystems) according to the protocol of the commercial company, and subsequently a real-time PCR was carried out by means of the assay with the SYBR Green I fluorophore in an ABI PRIS M 7700 Sequence Detector (Applied Biosystems).
The amount of mRNA was quantified by standardizing normalizing it with respect to the values of endogenous 18S ribosomal RNA. These values were in turn standardized with respect to the untreated cells and they were represented as the relative hBD2 mRNA level.

[1] = peptide derivative 0.5 mM, 24 h incubation, A549 pGL3-hBD2promotor-Luc stable line, standardized with negative controls (CONTROL 100%)
[2] = 0.25 mm peptide, supernatants of human keratinocytes from Example 15, standardized to untreated cells (CONTROL 100%)
[3] = 0.25 mM peptide, normalized to 18S rRNA and untreated cells (CONTROL 100%)

| Compound | LUMINESCENCE INCREASE (hBD2 promoter; [1]) [%] | Relative hBD2 level (hBD2; [2]) [%] | Relative hBD2 mRNA level (hBD2 mRNA; [3]) [%] | other results |
| --- | --- | --- | --- | --- |
| H-L-Glu-L-Met-L-Ala-L-Ile-OH (H-EMAI-OH) | 125 | – | – | – |
| Palm-L-Glu-L-Met-L-Ala-L-Ile-NH2 (Palmitoyl-EMAI-NH2; SMILES CCCCCCCCCCCCCCCC(=O)N[C@@H](CCC(=O)O)C(=O)N[C@@H](CCSC)C(=O)N[C@@H](C)C(=O)N[C@H](C(N)=O)[C@@H](C)CC) | 137 | – | – | – |
| Ac-Arg-[Ahx]-Ala-OH | 137 | 126 | 126 | – |
| CC[C@H](C)[C@H](N)C(=O)O [L-Ile, L-Isoleucine, reference compound] | – | – | – | Relative hBD2 level (hBD2; positive control L-Ile 200 μg/mL, keratinocyte supernatants, CONTROL 100%): 134%; Relative hBD2 mRNA level (hBD2 mRNA; positive control L-Ile 200 μg/mL, CONTROL 100%): 125%; LUMINESCENCE INCREASE (hBD2 promoter; positive control L-Isoleucine 25 μg/mL, 24 h, A549 stable line, CONTROL 100%): 127% |
| Ac-L-Arg-Phg-Phg-OH | 120 | 116 | 201 | – |
| Ac-L-Glu-L-Met-L-Ala-L-Ile-OH (Ac-EMAI-OH) | 196 | – | – | Relative hBD2 level (hBD2; 1 mm peptide, supernatants of human keratinocytes from Example 15, standardized to untreated cells (CONTROL 100%)): 129%; Relative hBD2 mRNA level (hBD2 mRNA; 1 mm peptide, normalized to 18S rRNA and untreated cells (CONTROL 100%)): 323% |

From patent US8815266B2, “Peptide derivatives useful in the treatment, care or cleansing of the skin, mucosae, scalp or nails” (Lipotech, S.A., priority 2008, dated 2014)
